Measurements from ChEMBL document CHEMBL1201862, “PubChem BioAssay data set” (2004).
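How tested: cells in 96-well plates exposed to compound for 48 hours at five concentrations. Abbreviation: GI50, concentration required for 50% inhibition of growth.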 Calls of active or inactive are those of the source. No stated cut-off is given here; in the data, active = GI50 up to about 1.1 µM and inactive = higher.

How the values were obtained:
Assay in all cases: DTP human tumour cell line panel, 48 h
DLD-1 = system: DLD-1
SNB-78 = system: SNB-78
DMS-114 = system: DMS-114
M19-MEL = system: M19-MEL
LXFL 529 = system: LXFL 529
RXF 631 = system: RXF 631
XF498 = system: XF498
HOP-18 = system: HOP-18
BT-549 = system: BT-549

Measured: GI50

COc1cc(C(N)=O)c(OC)c(OC)c1OC
inactive: DLD-1 > 100 µM | SNB-78 > 100 µM | DMS-114 > 100 µM | M19-MEL > 100 µM | LXFL 529 > 100 µM | RXF 631 > 100 µM

Cc1cc(C)nc(Sc2c([N+](=O)[O-])ncn2C)n1
inactive: XF498 > 100 µM | DLD-1 > 100 µM | SNB-78 > 100 µM | DMS-114 > 100 µM | M19-MEL > 100 µM | LXFL 529 99.8 µM | RXF 631 > 100 µM | HOP-18 20.6 µM

COC1C2C=CC(C2)[C@H]1[N+](=O)[O-] (stereo partly specified)
inactive: DLD-1 > 100 µM | SNB-78 > 100 µM | DMS-114 > 100 µM | M19-MEL > 100 µM | LXFL 529 > 100 µM | RXF 631 > 100 µM

COC(=O)C(CC(=O)Nc1ccc(C)cc1)C(=O)C(=O)Nc1c(C(C)C)cccc1C(C)C (stereo unspecified)
inactive: XF498 > 100 µM | DLD-1 > 100 µM | SNB-78 > 100 µM | DMS-114 > 100 µM | M19-MEL > 100 µM | LXFL 529 99.1 µM | RXF 631 > 100 µM

CC(=O)CCn1ncc(Cl)c(Cl)c1=O
inactive: XF498 19.7 µM | DLD-1 11.2 µM | SNB-78 19.8 µM | M19-MEL 4.92 µM | LXFL 529 13.4 µM | HOP-18 16.6 µM

Nc1c(S(=O)(=O)c2ccc(Cl)cc2)c2nc3ccccc3nc2n2ccnc12
inactive: XF498 65.8 µM | DLD-1 > 100 µM | SNB-78 > 100 µM | DMS-114 54 µM | M19-MEL > 100 µM | LXFL 529 > 100 µM | HOP-18 22.8 µM

O=C(Cc1nc2ccccc2c(=O)n1-c1ccccc1Cl)c1ccncc1
inactive: DLD-1 > 100 µM | SNB-78 > 100 µM | DMS-114 > 100 µM | M19-MEL > 100 µM | LXFL 529 > 100 µM | RXF 631 > 100 µM | HOP-18 > 100 µM

[O-][S+]1c2ccccc2N=C(c2ccc3ccccc3c2)CC1c1ccccc1F (stereo unspecified)
inactive: XF498 > 100 µM | DLD-1 > 100 µM | DMS-114 > 100 µM | M19-MEL > 100 µM | LXFL 529 > 100 µM | RXF 631 > 100 µM | HOP-18 > 100 µM

O=[N+]([O-])c1cc(I)cc(/C=N/NS(=O)(=O)c2ccc(F)cc2)c1O
inactive: DLD-1 36.5 µM | SNB-78 23.3 µM | DMS-114 24.2 µM | M19-MEL 31.2 µM | LXFL 529 20.7 µM | RXF 631 23.7 µM | HOP-18 19.7 µM

CN(C)CC1CCCC/C1=N/O (stereo unspecified)
inactive: DLD-1 > 100 µM | SNB-78 > 100 µM | DMS-114 > 100 µM | M19-MEL > 100 µM | LXFL 529 > 100 µM | RXF 631 > 100 µM | HOP-18 > 100 µM

O=[N+]([O-])c1ccc(NSc2ccccc2)cc1
inactive: XF498 31.1 µM | DLD-1 24.8 µM | SNB-78 38.3 µM | DMS-114 21 µM | LXFL 529 14.3 µM | HOP-18 > 100 µM

O=[N+]([O-])c1ccc(-c2csc(=[N+]3CCCCC3)s2)cc1
inactive: XF498 19.5 µM | DLD-1 18.3 µM | SNB-78 44.1 µM | DMS-114 2.13 µM | M19-MEL 10.7 µM | LXFL 529 5.93 µM | RXF 631 87.5 µM | HOP-18 > 100 µM

Cc1nc2cc3nc4ccccc4c(O)c3cc2s1
inactive: XF498 > 100 µM | SNB-78 > 100 µM | DMS-114 > 100 µM | M19-MEL > 100 µM | LXFL 529 > 100 µM | HOP-18 16.7 µM

COc1c(Cl)cc(NC(=S)C#N)cc1Cl
inactive: DLD-1 31.7 µM | SNB-78 26.7 µM | DMS-114 15.6 µM | BT-549 16.6 µM | M19-MEL 19.5 µM | LXFL 529 22.2 µM | RXF 631 19.7 µM | HOP-18 8.53 µM
